Read-outs that look alike come from different tables or passages of the source.
Experiment: Study 1: single dose cross-over pharmacokinetics, oral vs intracolonic Na.MPA
Set-up: species or system male beagle dogs
Details: dog, in vivo
Protocol: Two single dose cross-over studies were conducted using a canine model (male beagle dogs) to evaluate the potential of an enteric coated-extended release sodium mycophenolate formulation (“EC-ER-Na.MP”). In a first cross-over study, the pharmacokinetics of MPA and its metabolites (MPAG and AcMPAG) following oral dosing of 180 mg of EC-Na.MPA was compared with intracolonic (IC) administration of Na.MPA. In a second cross-over study, 270 mg of an EC-ER-Na.MPA formulation was administered in the both fed and fasted states and pharmacokinetics were compared with oral administration of 10 mg/kg MMF in the fasted state. Both studies were conducted by Absorption Systems (San Diego, Calif.).
Study 1: For three days prior to IC dosing, dogs (n=5) were offered a soft diet consisting of canned wet food (Pedigree® Choice Cuts). Otherwise, the dogs were offered their standard diet (LabDiet 5006 laboratory canine diet). Prior to each dosing event, the dogs were fasted for 12 hours prior to dosing until 4 hours post-dose, when food was returned. Animals had free access to water throughout the study. Prior to IC dosing, each dog was given a non-stimulant enema approximately 1 hour prior to dosing to remove feces from the colon. Prior to PO dosing, each dog (n=5) was pre-treated with an intramuscular dose of pentagastrin (6 μg/kg) approximately 30 minutes prior to dosing. Capsules were administered by placement in the back of the throat followed by a 10 mL flush with water.
Each dog received a total dose of 180 mg of MPA for each dose. For IC dosing, MPA was delivered as a solution via an endoscope, and for PO dosing each dog received a single Myfortic® 180 mg enteric coated capsule. Following administration, blood samples were collected up to 24 hours post-dose. Plasma concentrations of MPA, MPAG, and AcMPAG were determined with a qualified LC-MS/MS method, and pharmacokinetic parameters were determined with WinNonlin v.6.4 software.

COc1c(C)c2c(c(O)c1C/C=C(\C)CCC(=O)O)C(=O)OC2 [Na•MPA, sodium mycophenolate]
MPA:metabolite ratios compared with oral MMF or enteric-coated Na.MPA: higher MPA:metabolite ratios
MRT last (male beagle dogs, plasma, ORAL 180 mg (Myfortic enteric coated capsule), single dose, fasted, read-out: MPA MRTlast): 2.86 h
AUC(0-inf) (male, beagle, 180 mg): 31900 ng·h/mL
AUC(0-t) (male, beagle, 180 mg): 31000 ng·h/mL
MPA Cmax (male, beagle, 180 mg): 29460 ng/mL
MPA t1/2 (male, beagle, 180 mg): 5.55 h
MPA/AcMPAG Ratio (AUClast) (male, beagle, 180 mg): 171.19
MPA/MPAG Ratio (AUC∞) (male, beagle, 180 mg): 2.45
MRT last (male, beagle, 180 mg): 2.76 h
Tmax (male, beagle, 180 mg): 0.23 h
AUC(0-inf) (male, beagle, po, 180 mg): 45700 ng·h/mL
AUC(0-t) (male, beagle, po, 180 mg): 36400 ng·h/mL
MPA Cmax (male, beagle, po, 180 mg): 27320 ng/mL
MPA t1/2 (male, beagle, po, 180 mg): 4.49 h
MPA/AcMPAG Ratio (AUClast) (male, beagle, po, 180 mg): 88.40
MPA/MPAG Ratio (AUClast) (male, beagle, po, 180 mg): 1.42
MPA/MPAG Ratio (AUC∞) (male, beagle, po, 180 mg): 1.29
Tmax (male, beagle, po, 180 mg): 1 h

COc1c(C)c2c(c(O)c1C/C=C(\C)CCC(=O)O)C(=O)OC2 [MPA, Mycophenolic acid]
Cmax (male, beagle, 180 mg): 29500 ± 12600 ng/mL
MPA Cmax (male, beagle, 180 mg): 29460 ng/mL
half-life (male, beagle, 180 mg): 5.55 ± 1.77 h
Cmax (male, beagle, po, 180 mg): 27300 ± 12000 ng/mL
MPA Cmax (male, beagle, po, 180 mg): 27320 ng/mL
half-life (male, beagle, po, 180 mg): 4.49 h

— patent US11633378B2, “Methods and compositions for delivering mycophenolic acid active agents to non-human mammals” (OKAVA PHARMACEUTICALS, INC., priority 2017, dated 2023)
